Test results published in US20230277452A1, “COMPOSITIONS, DEVICES AND METHODS FOR TREATING NASAL, OTIC AND OTHER TISSUE INFECTION AND/OR INFLAMMATION” (priority 2020, published 2023).

Tests used:
[1] = Recovery of force-degraded fluticasone propionate spiked into placebo and of active cream, HPLC; format: physicochemical
in vivo = experiment: in vivo
Procedure: The control article was 0.9% saline.
Blood was collected (via a jugular vein cannula inserted during surgery) during the 10-day post-dose phase for pharmacokinetics, hematology, clinical chemistry, glucose, and morning cortisol analysis.
Because of the variability in the volume of the sinus in sheep, the total volume varied from 5 to 15 mL. Doses calculated by body weight and body surface area (BSA) are also shown.

SMILES	Difference with Placebo (neat vs spiked recovery) ([1]; 0.1N HC1 (1 hour)) [%]	Difference with Placebo (neat vs spiked recovery) ([1]; 0.1N NaOH (1 hour)) [%]	Difference with Placebo (neat vs spiked recovery) ([1]; 3% H2O2 (1 hour)) [%]	Difference with Placebo (neat vs spiked recovery) ([1]; 60° C. (3 days)) [%]	Difference with Placebo (neat vs spiked recovery) ([1]; Control (undegraded FP, kept at 4 C.))	Difference with Placebo (neat vs spiked recovery) ([1]; White light (3 days)) [%]	plasma levels detected through (in vivo; in vivo) [days post-dose]	Tmax (in vivo; sheep plasma, intra-sinus 0.05% betamethasone dipropionate cream, median (range), n = 6)	AUCinf (in vivo; sheep, in vivo) [ng·h/mL]	AUClast (in vivo; sheep, in vivo) [ng·h/mL]	Apparent half-life (in vivo; sheep, in vivo) [h]	Cmax (in vivo; sheep, in vivo)
CCC(=O)O[C@]1(C(=O)SCF)[C@H](C)C[C@H]2[C@@H]3C[C@H](F)C4=CC(=O)C=C[C@]4(C)[C@@]3(F)[C@@H](O)C[C@@]21C [Fluticasone Propionate 0.005%]	6.03	0.19	4.03	1.09	0.2-1.1% ^	2.71	–	–	–	–	–	–
CCC(=O)O[C@]1(C(=O)CO)[C@@H](C)C[C@H]2[C@@H]3CCC4=CC(=O)C=C[C@]4(C)[C@@]3(F)[C@@H](O)C[C@@]21C [Betamethasone 17-propionate, betamethasone 17-propionate]	–	–	–	–	–	–	3	0.5 (0.5-2) hr	59.3 ± 44.8	58.3 ± 44.7	9.5 ± 2.2	8,279 ± 3,376 pg/ml
